In publication PMC2150390, “High-dose cyclosporin with etoposide--toxicity and pharmacokinetic interaction in children with solid tumours” (British Journal of Cancer, 1998):

Assay: Etoposide pharmacokinetics with and without cyclosporin (plasma HPLC, non-compartmental analysis)
Format: in vivo, human
Conditions: for Clearance Cl+ / Half-life t1/2+ / Area under drug concentration curve AUC+: with cyclosporin; for Clearance Cl+ / Half-life t1/2+ / Area under drug concentration curve AUC+ / Clearance Cl- / Half-life t1/2- / Area under drug concentration curve AUC-: etoposide 150 mg m-2 over 1 hour; for Area under drug concentration curve AUC+ / Area under drug concentration curve AUC-: plasma HPLC, non-compartmental; for Median area under the concentration time curve for etoposide: etoposide 150 mg m-2 i.v.
[1] = Table 3, patient 1, cyclosporin schedule A
[2] = Table 3, patient 1, cyclosporin schedule A, without cyclosporin
[3] = Table 3, patient 2, cyclosporin schedule A
[4] = Table 3, patient 2, cyclosporin schedule A, without cyclosporin
[5] = Table 3, patient 4, cyclosporin schedule A
[6] = Table 3, patient 4, cyclosporin schedule A, without cyclosporin
[7] = Table 3, patient 5, cyclosporin schedule A
[8] = Table 3, patient 5, cyclosporin schedule A, without cyclosporin
[9] = Table 3, patient 6, cyclosporin schedule A
[10] = Table 3, patient 6, cyclosporin schedule A, without cyclosporin
[11] = Table 3, patient 7, cyclosporin schedule A
[12] = Table 3, patient 7, cyclosporin schedule A, without cyclosporin
[13] = Table 3, patient 8, cyclosporin schedule A
[14] = Table 3, patient 8, cyclosporin schedule A, without cyclosporin
[15] = Table 3, patient 9, cyclosporin schedule B
[16] = Table 3, patient 9, cyclosporin schedule B, without cyclosporin
[17] = Table 3, patient 10, cyclosporin schedule B
[18] = Table 3, patient 10, cyclosporin schedule B, without cyclosporin
[19] = Table 3, patient 11, cyclosporin schedule B
[20] = Table 3, patient 11, cyclosporin schedule B, without cyclosporin
[21] = Table 3, patient 13, cyclosporin schedule B
[22] = Table 3, patient 13, cyclosporin schedule B, without cyclosporin
[23] = Table 3, patient 14, cyclosporin schedule A
[24] = Table 3, patient 14, cyclosporin schedule A, without cyclosporin
[25] = Table 3, patient 15, cyclosporin schedule A
[26] = Table 3, patient 15, cyclosporin schedule A, without cyclosporin
[27] = Table 3, patient 17, cyclosporin schedule A
[28] = Table 3, patient 17, cyclosporin schedule A, without cyclosporin
[29] = Table 3, patient 18, cyclosporin schedule A
[30] = Table 3, patient 18, cyclosporin schedule A, without cyclosporin

COc1cc([C@@H]2c3cc4c(cc3[C@@H](O[C@@H]3O[C@@H]5CO[C@@H](C)O[C@H]5[C@H](O)[C@H]3O)[C@H]3COC(=O)[C@H]23)OCO4)cc(OC)c1O [etoposide]
Mean change in etoposide AUC with cyclosporin (15 patients, paired, P < 0.001): +89% | Mean change in etoposide clearance with cyclosporin (15 patients, paired, P < 0.001): -48% | Clearance Cl+ [1]: 15.7 mL/min | Half-life t1/2+ [1]: 5.08 h | Area under drug concentration curve AUC+ [1]: 14.6 mg·min/mL | Clearance Cl- [2]: 28.5 mL/min | Half-life t1/2- [2]: 3.27 h | Area under drug concentration curve AUC- [2]: 8.1 mg·min/mL | Clearance Cl+ [3]: 8.6 mL/min | Half-life t1/2+ [3]: 9.28 h | Area under drug concentration curve AUC+ [3]: 26.2 mg·min/mL | Clearance Cl- [4]: 22.0 mL/min | Half-life t1/2- [4]: 3.43 h | Area under drug concentration curve AUC- [4]: 10.2 mg·min/mL | Clearance Cl+ [5]: 18.6 mL/min | Half-life t1/2+ [5]: 5.75 h | Area under drug concentration curve AUC+ [5]: 16.9 mg·min/mL | Clearance Cl- [6]: 36.5 mL/min | Half-life t1/2- [6]: 5.08 h | Area under drug concentration curve AUC- [6]: 8.6 mg·min/mL | Clearance Cl+ [7]: 15.2 mL/min | Half-life t1/2+ [7]: 3.15 h | Area under drug concentration curve AUC+ [7]: 7.9 mg·min/mL | Clearance Cl- [8]: 30.2 mL/min | Half-life t1/2- [8]: 2 h | Area under drug concentration curve AUC- [8]: 3.8 mg·min/mL | Clearance Cl+ [9]: 11.9 mL/min | Half-life t1/2+ [9]: 3.82 h | Area under drug concentration curve AUC+ [9]: 8.8 mg·min/mL | Clearance Cl- [10]: 15.9 mL/min | Half-life t1/2- [10]: 2.75 h | Area under drug concentration curve AUC- [10]: 6.6 mg·min/mL | Clearance Cl+ [11]: 10.8 mL/min | Half-life t1/2+ [11]: 4.72 h | Area under drug concentration curve AUC+ [11]: 10.7 mg·min/mL | Clearance Cl- [12]: 21.9 mL/min | Half-life t1/2- [12]: 1.72 h | Area under drug concentration curve AUC- [12]: 5.3 mg·min/mL | Clearance Cl+ [13]: 9.9 mL/min | Half-life t1/2+ [13]: 6.9 h | Area under drug concentration curve AUC+ [13]: 10.1 mg·min/mL | Clearance Cl- [14]: 27.2 mL/min | Half-life t1/2- [14]: 2.05 h | Area under drug concentration curve AUC- [14]: 3.6 mg·min/mL | Clearance Cl+ [15]: 10.0 mL/min | Half-life t1/2+ [15]: 4.9 h | Area under drug concentration curve AUC+ [15]: 16.4 mg·min/mL | Clearance Cl- [16]: 25.8 mL/min | Half-life t1/2- [16]: 3.47 h | Area under drug concentration curve AUC- [16]: 6.4 mg·min/mL | Clearance Cl+ [17]: 11.6 mL/min | Half-life t1/2+ [17]: 6.93 h | Area under drug concentration curve AUC+ [17]: 14.2 mg·min/mL | Clearance Cl- [18]: 28.6 mL/min | Half-life t1/2- [18]: 1.37 h | Area under drug concentration curve AUC- [18]: 5.8 mg·min/mL | Clearance Cl+ [19]: 16.2 mL/min | Half-life t1/2+ [19]: 5.23 h | Area under drug concentration curve AUC+ [19]: 14.3 mg·min/mL | Clearance Cl- [20]: 32.5 mL/min | Half-life t1/2- [20]: 2.93 h | Area under drug concentration curve AUC- [20]: 7.4 mg·min/mL | Clearance Cl+ [21]: 7.8 mL/min | Half-life t1/2+ [21]: 4.93 h | Area under drug concentration curve AUC+ [21]: 13.1 mg·min/mL | Clearance Cl- [22]: 15.3 mL/min | Half-life t1/2- [22]: 2.47 h | Area under drug concentration curve AUC- [22]: 6.7 mg·min/mL | Clearance Cl+ [23]: 14.3 mL/min | Half-life t1/2+ [23]: 6.68 h | Area under drug concentration curve AUC+ [23]: 15.8 mg·min/mL | Clearance Cl- [24]: 29.3 mL/min | Half-life t1/2- [24]: 2.57 h | Area under drug concentration curve AUC- [24]: 7.7 mg·min/mL | Clearance Cl+ [25]: 22.6 mL/min | Half-life t1/2+ [25]: 6.78 h | Area under drug concentration curve AUC+ [25]: 12.9 mg·min/mL | Clearance Cl- [26]: 38.1 mL/min | Half-life t1/2- [26]: 4.3 h | Area under drug concentration curve AUC- [26]: 7.7 mg·min/mL | Clearance Cl+ [27]: 20.2 mL/min | Half-life t1/2+ [27]: 6.12 h | Area under drug concentration curve AUC+ [27]: 13.4 mg·min/mL | Clearance Cl- [28]: 29.1 mL/min | Half-life t1/2- [28]: 3.85 h | Area under drug concentration curve AUC- [28]: 9.3 mg·min/mL | Clearance Cl+ [29]: 10.1 mL/min | Half-life t1/2+ [29]: 11.4 h | Area under drug concentration curve AUC+ [29]: 21.5 mg·min/mL | Clearance Cl- [30]: 12.8 mL/min | Half-life t1/2- [30]: 10.3 h | Area under drug concentration curve AUC- [30]: 17.1 mg·min/mL | Percentage increase in etoposide AUC, mean (cyclosporin 3-h infusion): 106% | Percentage increase in etoposide AUC, mean (cyclosporin 24-h infusion): 89% | Median area under the concentration time curve for etoposide (with high-dose cyclosporin): 12.5 mg·min/mL | Median area under the concentration time curve for etoposide (without cyclosporin): 7.2 mg·min/mL
